Test results from US8507445B2, “Compositions and methods of use of targeting peptides for diagnosis and therapy of human cancer” (Board of Regents, The University of Texas System, priority 2002, dated 2013).
Entries after “also recorded” stand apart in the source; their conditions may differ.

What was measured:
adipose tissue = experiment: Validation of adipose homing phage in vivo; parameters: species or system obese mice; conditions: mouse
Text: A substractive phage display protocol (see Example 8 below) was used to isolate fat targeting peptides from a genetically obese mouse (Zhang et al., Nature, 372:425-432, 1994; Pelleymounter et al., Science 269:540-543, 1994). Phage that had been subjected to biopanning in obese mice were post-cleared in a normal mouse. The fat-targeting peptides isolated included TRNTGNI (SEQ ID NO:72), FDGQDRS (SEQ ID NO:73); WGPKRL (SEQ ID NO:74); WGESRL (SEQ ID NO:75); VMGSVTG (SEQ ID NO:76), KGGRAKD (SEQ ID NO:77), RGEVLWS (SEQ ID NO:78), TREVHRS (SEQ ID NO:79) and HGQGVRP (SEQ ID NO:80).
The fat homing clones selected were: FA—KGGRAKD (SEQ ID NO:77), FC—RGEVLWS (SEQ ID NO:78), FE—TREVHRS (SEQ ID NO:79) and FX—VMGSVTG (SEQ ID NO:76).

normal prostate = experiment: Phage overlay assay on human tissue sections; type: binding
Text: (§1) To test the tissue specificity of the IL-11 peptide mimic, a phage overlay assay was developed to evaluate receptor-ligand interactions in tissue sections, using the motif RRAGGS (SEQ ID NO:34) (Arap et al., Nature Med. 8:121-127, 2002).

skin = experiment: Phage overlay assay on human tissue sections; type: binding
Text: as §1

prostate = experiment: In vivo phage display in a human patient, tripeptide motif analysis; conditions: motifs in peptides isolated from prostate, compared with unselected phage library
Text: A large-scale preparation of a CX7C (C, cysteine; X, any amino acid residue) phage display random peptide library was optimized to create the highest possible insert diversity (Pasqualini et al., 2000). The diversity of the library was about 2×10^8 and its final titer was about 10^12 transducing units (TU)/ml. For biopanning with human subjects, use of a large-scale phage display library (diversity about 2×10^8) is advantageous compared to the smaller scale libraries used in mouse studies. Short-term intravenous infusion of the phage library (a total dose of 10^14 phage TU suspended in 100 ml of saline) into the patient was followed by multiple representative tissue biopsies. Prostate and liver samples were obtained by needle biopsy under ultrasonographic guidance. Skin, fat tissue, and skeletal muscle samples were obtained by surgical excision. Bone marrow needle aspirates and core biopsies were also obtained. Histopathological diagnosis was determined by examination of frozen sections processed from tissues obtained at the bedside.
Triplicate samples were processed for host bacterial infection, phage recovery, and histopathological analysis. In brief, tissues were weighed, ground with a glass Dounce homogenizer, suspended in 1 ml of Dulbecco Modified Eagle's medium (DMEM) containing proteinase inhibitors (DMEM-prin; 1 mM PMSF, 20 μg/ml aprotinin, and 1 μg/ml leupeptin), vortexed, and washed three times with DMEM-prin. The human tissue homogenates were incubated with 1 ml of host bacteria (log phase E. coli K91kan; OD600˜2). Aliquots of the bacterial culture were plated onto Luria-Bertani agar plates containing 40 μg/ml tetracycline and 100 μg/ml of kanamycin. Plates were incubated overnight at 37° C. Bacterial colonies were processed for sequencing of phage inserts recovered from each tissue and from unselected phage library. Human samples were handled with universal blood and body fluid precautions.
A high-throughput character pattern recognition program (M.D. Anderson Cancer Center, Biostatistics, Houston, Tex.) was developed to automate the analysis of the peptide motifs derived from phage screenings. […]
In order to identify the motifs that were enriched in the screening, the count for each tripeptide motif within each tissue was compared with the count for that tripeptide motif within the unselected library. Starting from a CX7C peptide insert, counts were recorded for all overlapping interior tripeptide motifs, subject only to reflection and single-voting restrictions. […] The significance of association of a given allocation of counts was assessed by Fisher's exact test (one-tailed). […]

[1] = tested on: serum antibodies of prostate cancer patients; experiment: ELISA of serum reactivity against GST-fusion peptides; type: binding, human
Protocol: A 20 μg/ml solution of purified GST or GST-fusion proteins in 0.1M NaHCO3 was used to coat maxisorp multi-well plates (Nalge Nunc International Corporation) and incubated overnight at 4° C. The plates were blocked in a blocking buffer (4% milk, 2% casein, and 0.05% Tween-20) for 3-4 hours. A series of […] dilutions (1:100-1:1200) of sera from prostate cancer patients or healthy individuals was added and incubated for 1.5 hours and then washed five times with washing buffer (1% milk, 0.5% casein, and 0.025% Tween-20), followed by incubation at 4° C. with anti-human alkaline phosphatase-conjugated antibodies (Gibco). The plates were then washed six times in washing buffer and developed using p-NPP (Sigma) as a substrate. An automatic ELISA plate reader (BIO-TEK instrument) recorded the results at OD405 nm.
Probabilities of survival for each group were estimated using the Kaplan-Meier method. A log-rank test was implemented in order to detect significant differences between the groups. Reactivity was considered to be detected if the ratio between GST-peptide and GST alone was greater or equal to two by the ELISA data. A Log-Rank test was used to determine statistical differences between groups. A statistical CART analysis (Classification And Regression Tree) was used to identify the best cut-off point for determining reactivity to GRP78. In this method, the censored survival data were transformed into a single uncensored data value (the so-called “null martingale residual”), which was used as input into a standard regression tree algorithm. A cut-off point of 0.95 was determined by this program

[2] = tested on: immunoglobulins from the serum of metastatic prostate cancer patients; experiment: Biopanning of CX6C phage library on IgGs from serum of prostate cancer patients A, B, C; type: binding, human; conditions: second and third rounds; patient A, B or C that yielded the peptide
Text: Sera was selected from patients diagnosed with androgen-dependent and androgen-independent prostate cancer. A CX6C peptide library was screened against this pool of IgGs in a two-step procedure. First, the peptide library was pre-cleared against a pool of purified IgGs from normal serum samples using Protein G affinity chromatography. This step removed peptides from the phage display library that bound to immunoglobulins from patients without prostate cancer. Next, the pre-cleared peptide library was screened against the pool of purified IgGs from the serum of prostate cancer patients. This step selected peptides binding specifically to IgGs elicited against prostate cancer.
A 6-mer cyclic peptide (CX6C) phage display library was used for the biopanning. To select peptides specific to the serum antibodies of cancer patients, a pre-clearing stage was employed to remove non-specific peptides by pre-absorbing the peptide library onto purified IgGs from pooled normal serum (five healthy male individuals). The pre-cleared peptide library was screened onto the purified IgGs from the serum of prostate cancer patients. In brief, 10^9 transducing units (T.U.) of a CX6C cyclic peptide phage library were incubated with IgG antibodies from 50 μl of normal serum immobilized on 50 μl of protein G (Gibco BRL) for 1 hour at 4° C. This was followed by affinity selection on the immobilized IgG antibodies from prostate cancer patient serum for 2 hours at 4° C. Phage peptides specifically bound to IgGs elicited against prostate cancer were eluted with 100 μl of 0.1 M glycine buffer, pH 2.2, neutralized by the addition of 10 μl 1M Tris pH 9.0, and used to infect E. coli strain K91. Ten-fold serial dilutions of the infected solution were spread onto agar plates containing 40 μg/ml of tetracycline and grown overnight. Two hundred colonies were picked, amplified, and precipitated for a subsequent round of panning. A total of three rounds were performed. Individual phage clones were picked for PCR and the insert DNA was sequenced.

MDA-MB-435 cells = experiment: Enhancement of phage transduction by genotoxic agents or trans-complementation; type: cell-based, human; conditions: cells infected with targeted phage, 72 hours post-infection; drugs 10 μM
Protocol: Semi-confluent MDA-MB-435 cells were infected with 10^5 TU of phage per cell for 4 hours in serum free media, after which fresh medium supplemented with FCS was added (no phage were washed out or removed). In some experiments, a phage admixture of forward and reverse clones at 10^10 TU (forward/reverse molar ratio=1) was tested. Next, cells were incubated for 36 hours followed by the addition of genotoxic drugs (topotecan, 10 μM; cisplatin, 10 μM) or administration of UV radiation (15 J/m^2) with a cross-linker apparatus (UV Stratalinker Model 2400; Stratagene). At 72 hours post-infection, the cells were analyzed for transduction of a reporter gene (β-gal or GFP), and gene expression was normalized per cell number relative to controls.

IL-11Rα = molecular target: T1, IL-11Rα (Homo sapiens, UniProt Q14626); experiment: Ligand-receptor binding assay in vitro with immobilized receptor; conditions: for phage binding to immobilized receptor: recombinant IL-11Rα
T1 sequence (Q14626 23-422): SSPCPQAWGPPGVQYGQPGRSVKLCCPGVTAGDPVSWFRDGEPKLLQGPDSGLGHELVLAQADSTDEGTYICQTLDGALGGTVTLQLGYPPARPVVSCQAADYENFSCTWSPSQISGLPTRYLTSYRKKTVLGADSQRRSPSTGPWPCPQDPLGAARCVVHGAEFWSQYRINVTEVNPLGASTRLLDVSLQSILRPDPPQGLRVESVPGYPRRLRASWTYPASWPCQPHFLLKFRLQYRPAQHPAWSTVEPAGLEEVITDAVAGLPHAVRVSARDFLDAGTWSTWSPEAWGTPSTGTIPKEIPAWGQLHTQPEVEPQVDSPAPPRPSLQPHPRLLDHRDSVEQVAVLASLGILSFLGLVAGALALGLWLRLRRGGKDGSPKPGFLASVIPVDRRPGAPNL
Protocol: (§2) Recombinant IL-11Rα vascular endothelial growth factor receptor-1 (VEGFR1) or leptin receptor (OB—R) were incubated with phage displaying the […] (SEQ ID NO:37) peptide. VEGFR1 was used as a representative vascular receptor, while OB—R was used because it shares a co-receptor with IL-11Rα. An unrelated phage clone displaying the peptide […] (SEQ ID NO:38) and insertless fd-tet phage were used as controls. […] Binding of […] (SEQ ID NO:37)-phage to IL-11Rα was specific, since it was inhibited by the native IL-11 ligand in a concentration-dependent manner (not shown). […] These observations with normal prostate tissues were followed by an examination of the expression of IL-11Rα in tumors, as discussed in the present Example.

leptin receptor (OB—R) = leptin receptor (OB—R) (Homo sapiens, UniProt P48357); experiment: as above; conditions: recombinant OB—R
Chain of leptin receptor (OB—R) (P48357 22-1165, species assumed): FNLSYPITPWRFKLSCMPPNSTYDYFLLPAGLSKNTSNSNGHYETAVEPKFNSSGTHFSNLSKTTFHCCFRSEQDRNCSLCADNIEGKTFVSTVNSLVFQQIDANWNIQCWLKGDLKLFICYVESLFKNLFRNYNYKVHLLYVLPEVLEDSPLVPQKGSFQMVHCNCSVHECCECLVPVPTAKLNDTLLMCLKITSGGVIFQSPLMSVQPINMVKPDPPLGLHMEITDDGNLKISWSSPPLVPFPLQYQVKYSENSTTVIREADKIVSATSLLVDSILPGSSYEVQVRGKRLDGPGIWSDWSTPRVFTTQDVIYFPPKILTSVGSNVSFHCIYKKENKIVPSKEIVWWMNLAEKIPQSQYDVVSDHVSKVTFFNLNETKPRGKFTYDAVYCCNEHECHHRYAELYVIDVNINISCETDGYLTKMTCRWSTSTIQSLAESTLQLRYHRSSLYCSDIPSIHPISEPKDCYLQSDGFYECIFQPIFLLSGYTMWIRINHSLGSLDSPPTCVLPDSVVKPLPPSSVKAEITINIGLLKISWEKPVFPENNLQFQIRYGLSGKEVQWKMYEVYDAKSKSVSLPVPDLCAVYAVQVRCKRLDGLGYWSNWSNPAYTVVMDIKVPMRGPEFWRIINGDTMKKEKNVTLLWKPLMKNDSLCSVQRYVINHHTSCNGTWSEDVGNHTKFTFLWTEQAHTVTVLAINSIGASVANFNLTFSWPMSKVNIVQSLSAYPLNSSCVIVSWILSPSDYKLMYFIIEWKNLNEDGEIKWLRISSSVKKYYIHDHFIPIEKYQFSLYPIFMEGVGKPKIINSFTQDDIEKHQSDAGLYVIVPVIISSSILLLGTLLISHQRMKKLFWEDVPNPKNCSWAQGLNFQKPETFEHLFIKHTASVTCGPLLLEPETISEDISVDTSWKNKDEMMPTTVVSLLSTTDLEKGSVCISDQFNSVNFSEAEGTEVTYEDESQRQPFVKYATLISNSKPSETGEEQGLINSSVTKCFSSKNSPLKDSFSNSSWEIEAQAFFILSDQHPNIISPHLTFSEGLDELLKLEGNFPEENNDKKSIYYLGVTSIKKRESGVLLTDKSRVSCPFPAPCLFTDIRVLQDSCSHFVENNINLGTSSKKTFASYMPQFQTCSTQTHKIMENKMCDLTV
Protocol: as §2

[3] = molecular target: vascular endothelial growth factor receptor-1 (VEGFR1) (Homo sapiens, UniProt P17948); experiment: as above; conditions: recombinant VEGFR1
Chain of vascular endothelial growth factor receptor-1 (VEGFR1) (P17948 27-1338, species assumed): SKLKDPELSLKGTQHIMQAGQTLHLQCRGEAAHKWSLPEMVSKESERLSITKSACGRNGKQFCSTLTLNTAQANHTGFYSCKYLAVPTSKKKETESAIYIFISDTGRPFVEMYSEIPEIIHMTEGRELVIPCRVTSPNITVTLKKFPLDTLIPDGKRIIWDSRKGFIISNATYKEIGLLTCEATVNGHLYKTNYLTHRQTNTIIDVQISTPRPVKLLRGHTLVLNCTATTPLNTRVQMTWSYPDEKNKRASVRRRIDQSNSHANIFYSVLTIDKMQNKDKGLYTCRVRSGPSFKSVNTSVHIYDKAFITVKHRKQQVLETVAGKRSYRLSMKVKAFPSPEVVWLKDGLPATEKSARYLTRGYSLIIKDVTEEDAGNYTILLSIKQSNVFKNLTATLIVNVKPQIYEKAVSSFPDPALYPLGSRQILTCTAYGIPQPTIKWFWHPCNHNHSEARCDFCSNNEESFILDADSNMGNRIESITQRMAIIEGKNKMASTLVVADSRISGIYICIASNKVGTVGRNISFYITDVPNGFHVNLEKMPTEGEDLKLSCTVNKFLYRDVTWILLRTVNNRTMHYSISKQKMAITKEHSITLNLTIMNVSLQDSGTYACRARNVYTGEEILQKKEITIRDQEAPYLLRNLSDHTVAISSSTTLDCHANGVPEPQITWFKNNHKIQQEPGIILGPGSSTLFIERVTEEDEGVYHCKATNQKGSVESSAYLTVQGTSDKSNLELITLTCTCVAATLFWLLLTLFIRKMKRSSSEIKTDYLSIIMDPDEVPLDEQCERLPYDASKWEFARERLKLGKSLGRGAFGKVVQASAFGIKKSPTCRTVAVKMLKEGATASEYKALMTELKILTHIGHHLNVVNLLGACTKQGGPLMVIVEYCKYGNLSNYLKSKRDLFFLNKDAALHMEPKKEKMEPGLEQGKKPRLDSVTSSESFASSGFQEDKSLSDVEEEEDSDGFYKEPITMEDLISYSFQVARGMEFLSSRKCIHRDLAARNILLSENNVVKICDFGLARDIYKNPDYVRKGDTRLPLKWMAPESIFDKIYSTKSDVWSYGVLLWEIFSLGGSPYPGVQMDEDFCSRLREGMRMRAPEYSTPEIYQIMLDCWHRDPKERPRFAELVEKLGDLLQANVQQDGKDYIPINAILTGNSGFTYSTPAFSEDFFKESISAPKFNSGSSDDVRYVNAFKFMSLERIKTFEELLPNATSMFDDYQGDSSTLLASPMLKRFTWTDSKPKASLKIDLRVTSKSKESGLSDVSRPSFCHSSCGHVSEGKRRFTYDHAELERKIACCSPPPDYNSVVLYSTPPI
Protocol: as §2

TREVHRS [FE]
homing to adipose tissue compared to control fd-tet phage (adipose tissue): some elevation of homing to adipose tissue

HGGVG [motif of a control phage that localized to skin tissue, reference compound]
phage binding to tissue section (normal prostate): did not bind to prostate tissue | phage binding to tissue section (skin): specifically recognized blood vessels in the skin

GER [tripeptide motif isolated from prostate]
Motif Frequency (prostate): 0.9

CNVSDKSC
positive serum reactivity ([1]; 71 age-matched healthy men (control)): 7% | positive serum reactivity ([1]; metastatic androgen-independent prostate cancer): 76% | positive serum reactivity ([1]; organ-confined prostate cancer patients): 6% | positive serum reactivity ([1]; patients with androgen-dependent tumors): 29% | share of the clones analyzed [2]: 55%

GVL [tripeptide motif isolated from prostate]
Motif Frequency (prostate): 2.3

AGG [tripeptide motif isolated from prostate]
Motif Frequency (prostate): 2.5

EGR [tripeptide motif isolated from prostate]
Motif Frequency (prostate): 1.0

CC[C@@]1(O)C(=O)OCc2c1cc1n(c2=O)Cc2cc3c(CN(C)C)c(O)ccc3nc2-1 [topotecan]
reporter gene transduction relative to controls (MDA-MB-435 cells): several fold higher

CRVDFSKGC [reference compound]
phage binding to immobilized receptor (IL-11Rα): Neither of the control phage exhibited selective binding

RRAGGS [prostate-targeting motif, IL-11 peptide mimic]
phage binding to tissue section (normal prostate): specifically bound to the endothelium and epithelium of normal prostate

CGRRAGGSC
phage binding to immobilized receptor (leptin receptor (OB—R)): Neither OB—R nor VEGFR1 showed binding | phage binding to immobilized receptor [3]: Neither OB—R nor VEGFR1 showed binding | phage binding to immobilized receptor (IL-11Rα): significant amount of binding

KGGRAKD [FA]
homing to adipose tissue compared to control fd-tet phage (adipose tissue): some elevation of homing to adipose tissue

VMGSVTG [FX]
homing to adipose tissue compared to control fd-tet phage (adipose tissue): some elevation of homing to adipose tissue; also recorded: several orders of magnitude higher adipose localization

N.N.[Cl][Pt][Cl] [cisplatin]
reporter gene transduction relative to controls (MDA-MB-435 cells): several fold higher

RGEVLWS [FC]
homing to adipose tissue compared to control fd-tet phage (adipose tissue): some elevation of homing to adipose tissue

B1: IL-11: native IL-11 ligand, cytokine (protein)
chain: PGPPPGPPRVSPDPRAELDSTVLLTRSLLADTRQLAAQLRDKFPADGDHNLDSLPTLAMSAGALGALQLPGVLTRLRADLLSYLRHVQWLRRAGGSSLKTLEPELGTLQARLDRLLRRLQLLMSRLALPQPPPDPPAPPLAPPSSAWGGIRAAHAILGGLHLTLDWAVRGLLLLKTRL
inhibition of CGRRAGGSC-phage binding to IL-11Rα (IL-11Rα; concentration of about 0.1 nM): ~100%
